Results published in US8431593B2, “Heteroaryl amide derivatives” (H. Lundbeck A/S, priority 2006, dated 2013).

Biological target: T1, P2X7 receptor (Homo sapiens, UniProt Q99572)
T1 construct: host or cells: SH-SY5Y
T1 sequence (Q99572 1-595): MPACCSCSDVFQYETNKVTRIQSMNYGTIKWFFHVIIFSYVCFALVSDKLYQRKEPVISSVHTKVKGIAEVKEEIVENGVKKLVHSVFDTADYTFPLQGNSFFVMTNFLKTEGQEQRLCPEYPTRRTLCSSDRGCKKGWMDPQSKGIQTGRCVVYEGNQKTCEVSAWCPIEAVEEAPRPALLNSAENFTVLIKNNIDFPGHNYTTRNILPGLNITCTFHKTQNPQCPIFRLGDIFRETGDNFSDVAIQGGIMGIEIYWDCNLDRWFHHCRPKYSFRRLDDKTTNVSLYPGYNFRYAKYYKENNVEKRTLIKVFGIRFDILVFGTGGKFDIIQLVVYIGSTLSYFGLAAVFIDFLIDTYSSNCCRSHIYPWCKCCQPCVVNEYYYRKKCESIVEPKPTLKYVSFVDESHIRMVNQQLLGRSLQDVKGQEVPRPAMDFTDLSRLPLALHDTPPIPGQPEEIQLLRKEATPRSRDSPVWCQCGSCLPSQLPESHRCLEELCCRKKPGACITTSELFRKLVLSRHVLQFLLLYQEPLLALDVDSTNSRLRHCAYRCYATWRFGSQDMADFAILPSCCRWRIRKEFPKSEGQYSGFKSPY
Test: P2X7 calcium mobilization assay, high throughput, antagonist activity (Example 4A)
Type: cell-based
Details: 50% decrease in the fluorescence response of cells exposed to 80 μM of 2′(3′)-O-(4-benzoyl-benzoyl)adenosine 5′-triphosphate; Example 4A; read-out: IC50
Summary of the method: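 Dye-loaded cells (100,000/well, seeded previous day) are pre-exposed to compound for an hour at room temperature. Fluorescence maxima are baseline-corrected against no-agonist wells and compared with the averaged agonist-well maximum.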

| Structure (SMILES) | IC50 |
| --- | --- |
| O=C(NCCc1ccncc1)c1cn2c(C(=O)NCC34CC5CC(CC(C5)C3)C4)cccc2n1 [Compound 660, 5-N-(adamantan-1-ylmethyl)-2-N-(2-pyridin-4-ylethyl)imidazo[1,2-a]pyridine-2,5-dicarboxamide] | < 2000 nM |
| O=C(NCc1ccncc1)c1cn2c(C(=O)NCC34CC5CC(CC(C5)C3)C4)cccc2n1 [Compound 661, 5-N-(adamantan-1-ylmethyl)-2-N-(pyridin-4-ylmethyl)imidazo [1,2-a]pyridine-2,5-dicarboxamide] | < 2000 nM |
| O=C(N[C@@H]1CN2CCC1CC2)c1cn2c(C(=O)NCC34CC5CC(CC(C5)C3)C4)cccc2n1 [Compound 662, 5-N-(adamantan-1-ylmethyl)-2-N-[(3S)-1-azabicyclo[2.2.2]oct-3-yl]imidazo[1,2-a]pyridine-2,5-dicarboxamide] | < 2000 nM |
| CN1CCCCC1CCNC(=O)c1cn2c(C(=O)NCC34CC5CC(CC(C5)C3)C4)cccc2n1 (stereo not shown) [Compound 664, 5-N-(adamantan-1-ylmethyl)-2-N-[2-(1-methylpiperidin-2-yl)ethyl]imidazo[1,2-a]pyridine-2,5-dicarboxamide] | < 2000 nM |
| CN1CCCCC1CNC(=O)c1cn2c(C(=O)NCC34CC5CC(CC(C5)C3)C4)cccc2n1 (stereo not shown) [Compound 666, 5-N-(adamantan-1-ylmethyl)-2-N-[(1-methylpiperidin-2-yl)methyl]imidazo[1,2-a]pyridine-2,5-dicarboxamide] | < 2000 nM |
| CN1C2CCC1CC(NC(=O)c1cn3c(C(=O)NCC45CC6CC(CC(C6)C4)C5)cccc3n1)C2 (stereo not shown) [Compound 667, 5-N-(adamantan-1-ylmethyl)-2-N-(8-methyl-8-azabicyclo[3.2.1]oct-3-yl)imidazo[1,2-a]pyridine-2,5-dicarboxamide] | < 2000 nM |
| CN1CCCC(CNC(=O)c2cn3c(C(=O)NCC45CC6CC(CC(C6)C4)C5)cccc3n2)C1 (stereo not shown) [Compound 668, 5-N-(adamantan-1-ylmethyl)-2-N-[(1-methylpiperidin-3-yl)methyl]imidazo[1,2-a]pyridine-2,5-dicarboxamide] | < 2000 nM |
| CN(C)C1CCN(C(=O)c2cn3c(C(=O)NCC45CC6CC(CC(C6)C4)C5)cccc3n2)CC1 [Compound 669, N-(adamantan-1-ylmethyl)-2-{[4-(dimethylamino)piperidin-1-yl]carbonyl}imidazo[1,2-a]pyridine-5-carboxamide] | < 2000 nM |
| CN(C)CCCN(C)C(=O)c1cn2c(C(=O)NCC34CC5CC(CC(C5)C3)C4)cccc2n1 [Compound 670, 5-N-(adamantan-1-ylmethyl)-2-N-[3-(dimethylamino)propyl]-2-N-methylimidazo[1,2-a]pyridine-2,5-dicarboxamide] | < 2000 nM |
| CN1CCC(N(C)C(=O)c2cn3c(C(=O)NCC45CC6CC(CC(C6)C4)C5)cccc3n2)CC1 [Compound 671, 5-N-(adamantan-1-ylmethyl)-2-N-methyl-2-N-(1-methylpiperidin-4-yl)imidazo[1,2-a]pyridine-2,5-dicarboxamide] | < 2000 nM |
| CCN(CCN(C)C)C(=O)c1cn2c(C(=O)NCC34CC5CC(CC(C5)C3)C4)cccc2n1 [Compound 672, 5-N-(adamantan-1-ylmethyl)-2-N-[2-(dimethylamino)ethyl]-2-N-ethylimidazo[1,2-a]pyridine-2,5-dicarboxamide] | < 2000 nM |
| CCN(C)CCN(CC)C(=O)c1cn2c(C(=O)NCC34CC5CC(CC(C5)C3)C4)cccc2n1 [Compound 673, 5-N-(adamantan-1-ylmethyl)-2-N-ethyl-2-N-{2-[ethyl(methyl)amino]ethyl}imidazo[1,2-a]pyridine-2,5-dicarboxamide] | < 2000 nM |
| CCN(CC)C1CCN(C(=O)c2cn3c(C(=O)NCC45CC6CC(CC(C6)C4)C5)cccc3n2)CC1 [Compound 674, N-(adamantan-1-ylmethyl)-2-{[4-(diethylamino)piperidin-1-yl]carbonyl}imidazo [1,2-a]pyridine-5-carboxamide] | < 2000 nM |
| CCN(CC)CCN(C)C(=O)c1cn2c(C(=O)NCC34CC5CC(CC(C5)C3)C4)cccc2n1 [Compound 675, 5-N-(adamantan-1-ylmethyl)-2-N-[2-(diethylamino)ethyl]-2-N-methylimidazo[1,2-a]pyridine-2,5-dicarboxamide] | < 2000 nM |
| CCN(C(=O)c1cn2c(C(=O)NCC34CC5CC(CC(C5)C3)C4)cccc2n1)C1CCN(C)CC1 [Compound 679, 5-N-(adamantan-1-ylmethyl)-2-N-ethyl-2-N-(1-methylpiperidin-4-yl)imidazo[1,2-a]pyridine-2,5-dicarboxamide] | < 2000 nM |
| CC(C)N(C(=O)c1cn2c(C(=O)NCC34CC5CC(CC(C5)C3)C4)cccc2n1)C1CCN(C)CC1 [Compound 680, 5-N-(adamantan-1-ylmethyl)-2-N-isopropyl-2-N-(1-methylpiperidin-4-yl)imidazo[1,2-a]pyridine-2,5-dicarboxamide] | < 2000 nM |
| COCCN(C(=O)c1cn2c(C(=O)NCC34CC5CC(CC(C5)C3)C4)cccc2n1)C1CCN(C)CC1 [Compound 681, 5-N-(adamantan-1-ylmethyl)-2-N-(2-methoxyethyl)-2-N-(1-methylpiperidin-4-yl)imidazo[1,2-a]pyridine-2,5-dicarboxamide] | < 2000 nM |
| O=C(Cc1cn2c(C(=O)NCC34CC5CC(CC(C5)C3)C4)cccc2n1)NC1CN2CCC1CC2 (stereo not shown) [Compound 684, N-(adamantan-1-ylmethyl)-2-[2-(1-azabicyclo[2.2.2]oct-3-ylamino)-2-oxoethyl]imidazo[1,2-a]pyridine-5-carboxamide] | < 2000 nM |
| O=C(NCC12CC3CC(CC(C3)C1)C2)c1cccc2nc(Cc3nnn[nH]3)cn12 [Compound 685, N-(adamantan-1-ylmethyl)-2-(1H-tetrazol-5-ylmethyl)imidazo[1,2-a]pyridine-5-carboxamide] | < 2000 nM |
| O=C(O)c1cn2c(C(=O)NCC34CC5CC(CC(C5)C3)C4)cccc2n1 [Compound 686, 5-[(adamantan-1-ylmethyl)carbamoyl] imidazo[1,2-a] pyridine-2-carboxylic acid] | < 2000 nM |
| CC(C)CC(CNC(=O)c1cccc2nc(CN3CCOCC3)cn12)C1CCCCC1 (stereo not shown) [Compound 687, N-(2-cyclohexyl-4-methylpentyl)-2-(morpholin-4-ylmethyl)imidazo[1,2-a]pyridine-5-carboxamide] | < 2000 nM |
| CC(C)CC(CNC(=O)c1cccc2nc(CN3CCOCC3)cn12)c1ccccc1 (stereo not shown) [Compound 688, N-(4-methyl-2-phenylpentyl)-2-(morpholin-4-ylmethyl)imidazo[1,2-a]pyridine-5-carboxamide] | < 2000 nM |
| CCOC(=O)C(Cc1cccnc1)c1cn2c(C(=O)NCC34CC5CC(CC(C5)C3)C4)cccc2n1 (stereo not shown) [Compound 689, ethyl 2-{5-[(adamantan-1-ylmethyl)carbamoyl]imidazo[1,2-a]pyridin-2-yl}-3-pyridin-3-ylpropanoate] | < 2000 nM |
| CNC1CCN(C(=O)Cc2cn3c(C(=O)NCC45CC6CC(CC(C6)C4)C5)cccc3n2)C1 (stereo not shown) [Compound 690, N-(adamantan-1-ylmethyl)-2-{2-[3-(methylamino)pyrrolidin-1-yl]-2-oxoethyl}imidazo[1,2-a]pyridine-5-carboxamide] | < 2000 nM |
| CN(C)[C@@H]1CCN(C(=O)Cc2cn3c(C(=O)NCC45CC6CC(CC(C6)C4)C5)cccc3n2)C1 [Compound 691, N-(adamantan-1-ylmethyl)-2-{2-[(3R)-3-(dimethylamino)pyrrolidin-1-yl]-2-oxoethyl}imidazo[1,2-a]pyridine-5-carboxamide] | < 2000 nM |
